These results are taken from US20210177828A1, “TAM FAMILY KINASE /AND CSF1R KINASE INHIBITOR AND USE THEREOF” (Nanjing Transthera Biosciences Co., Ltd., priority 2018, published 2021).

One assay concerns the target T1, Mer (h) (Homo sapiens, UniProt Q12866).
T1 sequence (Q12866 21-999): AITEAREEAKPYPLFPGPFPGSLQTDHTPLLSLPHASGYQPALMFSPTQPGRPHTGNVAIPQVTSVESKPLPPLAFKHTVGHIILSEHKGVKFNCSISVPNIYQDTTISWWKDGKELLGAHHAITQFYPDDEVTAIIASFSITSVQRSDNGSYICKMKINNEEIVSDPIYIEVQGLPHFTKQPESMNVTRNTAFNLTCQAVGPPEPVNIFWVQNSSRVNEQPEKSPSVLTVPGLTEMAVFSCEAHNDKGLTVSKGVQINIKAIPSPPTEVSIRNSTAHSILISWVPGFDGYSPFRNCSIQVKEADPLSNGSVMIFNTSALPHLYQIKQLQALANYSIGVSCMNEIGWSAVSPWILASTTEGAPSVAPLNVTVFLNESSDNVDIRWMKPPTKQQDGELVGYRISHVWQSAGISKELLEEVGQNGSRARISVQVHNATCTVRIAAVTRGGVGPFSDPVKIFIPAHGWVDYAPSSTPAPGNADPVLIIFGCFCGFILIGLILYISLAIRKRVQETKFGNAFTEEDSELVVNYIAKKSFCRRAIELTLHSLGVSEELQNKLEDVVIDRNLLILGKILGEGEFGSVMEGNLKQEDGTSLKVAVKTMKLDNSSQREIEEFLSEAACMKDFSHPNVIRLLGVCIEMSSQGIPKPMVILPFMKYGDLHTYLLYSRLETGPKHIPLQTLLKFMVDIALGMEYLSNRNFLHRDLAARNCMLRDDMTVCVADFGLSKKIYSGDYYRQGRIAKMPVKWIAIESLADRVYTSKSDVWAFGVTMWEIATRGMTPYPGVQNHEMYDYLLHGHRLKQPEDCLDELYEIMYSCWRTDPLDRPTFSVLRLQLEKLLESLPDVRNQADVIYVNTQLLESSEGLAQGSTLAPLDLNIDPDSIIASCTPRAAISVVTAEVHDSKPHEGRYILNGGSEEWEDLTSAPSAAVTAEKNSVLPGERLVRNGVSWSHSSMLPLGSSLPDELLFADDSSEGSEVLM
Briefly: Enzymatic activity assay, Mer (h), [γ-33P]-ATP filter assay. The format is biochemical. The note with it: 10 μM ATP, 40 min room temperature; read-out: Inhibitory activity IC50 Mer(h). The method, then:
(§1) Compounds were each dissolved in 100% DMSO to prepare stock solutions with a maximum concentration of 500 μM.
(§2) Compound working solutions (50×) were prepared by diluting a compound stock solution to a final concentration of 500, 150, 50, 15, 5, 1.5, 0.5, 0.15 and 0.05 μM.
An enzyme solution with a final concentration of 3.1 nM was prepared by dissolving Mer (h) enzyme in a mixture of 8 mM MOPS (pH 7.0), 0.2 mM EDTA, 30 mM NaCl and 250 μM GGMEDIYFEFMGGKKK. A Mg/ATP mixture of 10 mM magnesium acetate and 10 μM [γ-^33P]-ATP was used to activate the enzymatic reaction.
(§3) A compound working solution was added to a 384-well plate, with final concentrations of 10,000, 3,000, 1,000, 300, 100, 30, 10, 3 and 1 nM, and then different enzymatic reaction solutions prepared according to the above conditions were added. The reaction solutions were incubated at room temperature for 40 min, and then 0.5% phosphoric acid solutions were added to terminate the reaction. 10 μL of the reaction solution was added dropwise to P30 filter paper, washed 4 times with a 0.425% phosphoric acid solution and once with methanol, and then placed in a scintillation counter for detection. Gray analysis was performed on the results with Image J software, and IC50 values were calculated with GraphPad 5.0 software.

The next assay addresses T2, Axl (h) (Homo sapiens, UniProt P30530).
T2 sequence (P30530 26-894): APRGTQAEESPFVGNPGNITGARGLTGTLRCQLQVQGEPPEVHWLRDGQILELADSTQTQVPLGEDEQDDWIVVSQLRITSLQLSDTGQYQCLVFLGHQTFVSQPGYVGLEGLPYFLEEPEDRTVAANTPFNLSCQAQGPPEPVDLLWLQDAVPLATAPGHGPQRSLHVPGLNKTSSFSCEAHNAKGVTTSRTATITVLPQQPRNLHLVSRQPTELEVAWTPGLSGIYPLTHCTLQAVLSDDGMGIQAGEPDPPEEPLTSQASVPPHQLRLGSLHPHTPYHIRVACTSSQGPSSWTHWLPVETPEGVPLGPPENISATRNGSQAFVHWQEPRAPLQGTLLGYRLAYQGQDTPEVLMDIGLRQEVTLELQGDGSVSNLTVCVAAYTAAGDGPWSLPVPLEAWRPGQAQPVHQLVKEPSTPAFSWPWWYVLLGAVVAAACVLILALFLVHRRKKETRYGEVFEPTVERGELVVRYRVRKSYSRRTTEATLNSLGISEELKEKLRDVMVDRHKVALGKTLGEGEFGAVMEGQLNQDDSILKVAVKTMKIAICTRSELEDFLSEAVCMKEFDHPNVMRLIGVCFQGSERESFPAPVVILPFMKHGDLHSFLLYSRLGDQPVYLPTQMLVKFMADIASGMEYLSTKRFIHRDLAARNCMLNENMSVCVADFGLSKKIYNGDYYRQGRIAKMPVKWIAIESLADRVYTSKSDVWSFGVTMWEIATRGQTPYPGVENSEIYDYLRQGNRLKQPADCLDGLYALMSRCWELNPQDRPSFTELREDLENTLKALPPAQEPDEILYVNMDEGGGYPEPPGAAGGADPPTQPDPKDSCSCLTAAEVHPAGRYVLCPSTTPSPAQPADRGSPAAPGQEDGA
Briefly: Enzymatic activity assay, Axl (h), [γ-33P]-ATP filter assay. The note with it: 10 μM ATP, 40 min room temperature; read-out: Inhibitory activity IC50 Axl(h). The format is biochemical. The method, then:
as §1, §2
An enzyme solution with a final concentration of 1.7 nM was prepared by dissolving Axl (h) enzyme in a mixture of 8 mM MOPS (pH 7.0), 0.2 mM EDTA and 250 μM KKSRGDYMTMQIG. A Mg/ATP mixture of 10 mM magnesium acetate and 10 μM [γ-^33P]-ATP was used to activate the enzymatic reaction.
as §3

By IC50 is commonly meant the concentration needed to halve the response being measured. Turning to `COc1cc2nccc(Oc3ccc(NC(=O)c4nn(C5CCOCC5)cc(-c5ccc(F)cc5)c4=O)nc3)c2cc1OC` [Compound 34, N-(5-((6,7-dimethoxyquinolin-4-yl)oxy)pyridin-2-yl)-5-(4-fluorophenyl)-4-oxo-1-(tetrahydro-2H-pyran-4-yl)-1,4-dihydropyridazin-3-carboxamide], the results for the IC50 on Mer (h) and on Axl (h) were 2 nM and 29 nM, respectively.

Regarding `COc1cc2nccc(Oc3ccc(NC(=O)c4nn(C5CCOCC5)cc(-c5ccc(C)cc5)c4=O)cc3F)c2cc1OC` [Compound 28], the IC50 on Mer (h) was determined as 1 nM; on Axl (h), 23 nM.

Take `COc1cc2nccc(Oc3ccc(NC(=O)c4cc(CC5CCOCC5)cn(-c5ccc(C)cc5)c4=O)nc3)c2cc1OC` [Compound 26, N-(5-((6,7-dimethoxyquinolin-4-yl)oxy)pyridin-2-yl)-oxo-5-((tetrahydro-2H-pyran-4-yl)methyl)-1-(p-tolyl)-1,2-dihydropyridin-3-carboxamide]: the values for the IC50 on Mer (h) and at Axl (h) were 8 nM and 20 nM, respectively.

Regarding `COc1cc2nccc(Oc3ccc(NC(=O)c4cn(CC5CC[S+]([O-])CC5)cc(-c5ccc(C)cc5)c4=O)nc3)c2cc1OC` (stereo not drawn) [Compound 8, N-(5-((6,7-dimethoxyquinolin-4-yl)oxy)pyridin-2-yl)-1-((1-oxotetrahydro-2H-thiopyran-4-yl)methyl)-4-oxo-5-(p-tolyl)-1,4-dihydropyridin-3-carboxamide], the IC50 at Mer (h) was 73 nM; on Axl (h), 6 nM.

For the molecule `COc1cc2nccc(Oc3ccc(NC(=O)c4nn(C5CCOCC5)cc(-c5ccc(C)cc5)c4=O)nc3)c2cc1OC` [Compound 17, N-(5-((6,7-dimethoxyquinolin-4-yl)oxy)pyridin-2-yl)-4-oxo-1-(tetrahydro-2H-pyran-4-yl)-5-(p-tolyl)-1,4-dihydropyridazin-3-carboxamide], the IC50 was found to be 1 nM on Mer (h) and 3 nM on Axl (h).

With `COc1cc2nccc(Oc3ccc(NC(=O)c4cn(C5CCOCC5)cc(-c5ccc(F)cc5)c4=O)nc3)c2cc1OC` [Compound 27, N-(5-((6,7-dimethoxyquinolin-4-yl)oxy)pyridin-2-yl)-5-(4-fluorophenyl)-4-oxo-1-(tetrahydro-2H-pyran-4-yl)-1,4-dihydropyridin-3-carboxamide], the IC50 on Mer (h) was found to be 7 nM; on Axl (h), 13 nM.

Turning to `COc1cc2nccc(Oc3cnc(NC(=O)c4cn(C5CCOCC5)cc(-c5ccc(C)cc5)c4=O)nc3)c2cc1OC` [Compound 20, N-(5-((6,7-dimethoxyquinolin-4-yl)oxy)pyrimidin-2-yl)-4-oxo-1-(tetrahydro-2H-pyran-4-yl)-5-(p-tolyl)-1,4-dihydropyridin-3-carboxamide], the IC50 on Mer (h) is 14 nM; on Axl (h), 4 nM.

For the molecule `Cc1ccc(-c2cn(C3CCOCC3)nc(C(=O)Nc3ccc(Oc4ccnc5cc6c(cc45)OCO6)cn3)c2=O)cc1` [Compound 29, N-(5-([1,3]dioxolo[4,5-g]quinolin-8-yloxy)pyridin-2-yl)-4-oxo-1-(tetrahydro-2H-pyran-4-yl)-5-(p-tolyl)-1,4-dihydropyridazin-3-carboxamide], the IC50 at Mer (h) was determined as 48 nM; at Axl (h), 28 nM.

On to `COc1cc2nccc(Oc3cnc(NC(=O)c4cn(C5CCOCC5)cc(-c5ccc(F)cc5)c4=O)nc3)c2cc1OC` [Compound 31, N-(5-((6,7-dimethoxyquinolin-4-yl)oxy)pyrimidin-2-yl)-5-(4-fluorophenyl)-4-oxo-1-(tetrahydro-2H-pyran-4-yl)-1,4-dihydropyridin-3-carboxamide], for which the IC50 on Mer (h) turned out to be 8 nM; at Axl (h) it was 15 nM.

Take `COc1cc2nccc(Oc3ccc(NC(=O)c4cc(-c5ccc(C)cc5)cn(CC5CCOCC5)c4=O)nc3)c2cc1OC` [Compound 13, N-(5-((6,7-dimethoxyquinolin-4-yl)oxy)pyridin 2yl)-2-oxo-1-((tetrahydro-2H-pyran-4-yl)methyl)-5-(p-tolyl)-1,2-dihydropyridin-3-carboxamide]: the IC50 at Mer (h) worked out at 8 nM; on Axl (h), 23 nM.

Turning to `COc1cc2nccc(Oc3cnc(NC(=O)c4cn(CC5CCOCC5)cc(-c5ccc(C)cc5)c4=O)nc3)c2cc1OC` [Compound 4, N-(5-((6,7-dimethoxyquinolin-4-yl)oxy)pyrimidin-2-yl)-4-oxo-1-((tetrahydro-2H-pyran-4-yl)methyl)-5-(p-tolyl)-1,4-dihydropyridin-3-carboxamide], the IC50 at Mer (h) was found to be 5 nM; at Axl (h), 9 nM.

On to `COc1cc2nccc(Oc3ccc(NC(=O)c4cn(CC5CCSCC5)cc(-c5ccc(C)cc5)c4=O)nc3)c2cc1OC` [Compound 9, N-(5-((6,7-dimethoxyquinolin-4-yl)oxy)pyridin-2-yl)-4-oxo-1-((tetrahydro-2H-thiopyran-4-yl)methyl)-5-(p-tolyl)-1,4-dihydropyridin-3-carboxamide], for which the IC50 at Mer (h) stood at 5 nM; on Axl (h), 35 nM.

`COc1cc2nccc(Oc3cnc(NC(=O)c4nn(C5CCOCC5)cc(-c5ccc(F)cc5)c4=O)nc3)c2cc1OC` [Compound 33, N-(5-((6,7-dimethoxyquinolin-4-yl)oxy)pyrimidin-2-yl)-5-(4-fluorophenyl)-4-oxo-1-(tetrahydro-2H-pyran-4-yl)-1,4-dihydropyridazin-3-carboxamide]: the IC50 on Mer (h) stood at 6 nM; on Axl (h), 27 nM.

In the case of `COc1cc2nccc(Oc3ccc(NC(=O)c4cn(CC5CCOCC5)c5ccccc5c4=O)nc3)c2cc1OC` [Compound 25, N-(5-((6,7-dimethoxyquinolin-4-yl)oxy)pyridin-2-yl)-4-oxo-1-((tetrahydro-2H-pyran-4-yl)methyl)-1,4-dihydroquinolin-3-carboxamide], the IC50 was 15 nM on Mer (h) and 11 nM at Axl (h).

Consider `COc1cc2nccc(Oc3cnc(NC(=O)c4nn(C5CCOCC5)cc(-c5ccc(C)cc5)c4=O)nc3)c2cc1OC` [Compound 18, N-(5-((6,7-dimethoxyquinolin-4-yl)oxy)pyrimidin-2-yl)-4-oxo-1-(tetrahydro-2H-pyran-4-yl)-5-(p-tolyl)-1,4-dihydropyridazin-3-carboxamide], for which the IC50 on Mer (h) was 5 nM; at Axl (h) it was 7 nM.
